Where two headings read alike, the source gives them in different places.
Legend:
[1] = target: T1, Avi-KRAS WT (1-169) GppNHp/RAF1 RBD-3xFLAG (52-151) (Homo sapiens, UniProt P01116); assay: RAS-effector PPI HTRF disruption assay, Raf1-GppNHp-KRAS WT; format: biochemical
T1 construct: 50 nM Avi-KRAS WT (1-169) GppNHp
Procedure: (§1) A protein:protein interaction (PPI) Homogeneous Time Resolved Fluorescence (HTRF) assay was used to determine the effectiveness of compounds of the present disclosure in disrupting KRAS protein and effector (RAF1 or PIK3 CA) binding.
(§2) The HTRF assay used the following reagents and proteins: (i) 375 nM Avi-KRAS G12D/Q25A (1-169) GppNHp/3×FLAG-PI3KCA (157-299); (ii) 100 nM Avi-KRAS G12D (1-169) GppNHp/RAF1 RBD-3×FLAG (52-151); (iii) 50 nM Avi-KRAS G12V (1-169) GppNHp/RAF1 RBD-3×FLAG (52-151); (iv) 50 nM Avi-KRAS WT (1-169) GppNHp/RAF1 RBD-3×FLAG (52-151); and (v) 35 nM Avi-PI3K RBD CA-3×FLAG; Assay Buffer: 50 mM Tris pH 7.5, 100 mM NaCl, 5 mM MgCl2, 0.1% BSA, 0.01% Tween, 1 mM TCEP, 10% DMSO; Bead Buffer: 50 mM Tris pH 7.5, 0.01% Tween 20; Assay volume: 20 μL (384 well plate-low volume format); and Compound titration: 100-0.02 μM, 3× dilution series.
(§3) The HTRF assay employed the following protocol:
(§4) Compounds were dispensed in assay plate (384-well, Grenier Bione #784075) using Echo (model 555) with dose response settings: 200 nL final volume, titration from 100 μM as a 10-point dilution series. Protein mix was prepared in assay buffer, and dispensed on plates, 10 μL per well, then incubated for 1 h at room temperature, with 700 rpm shaking. Reagents mix was prepared and dispensed on plates, 10 μL per well, then incubated for 1 h at room temperature, with 700 rpm shaking.
(§5) Plates were analyzed on an Envision plate reader using the following setting: Excitation 320 nm, Bandwidth […]; Emission 615 nm, Bandwidth […], Gain 100%, Flashes 100, Lag 60 μs. Data was reported as percentage of activity, with DMSO as 100%. Data was plotted and analyzed using Prism 8. The SPR Kd, biochemical Raf1-KRAS G12D/G12V/WT-GppNHP and PI3KCA-KRAS G12D/Q25A-GppNHp disruption assay IC50 of selected compounds described herein are shown in Table 4.

[2] = target: T2, Avi-KRAS G12V (1-169) GppNHp/RAF1 RBD-3xFLAG (52-151) (Homo sapiens, UniProt P01116, G12V); assay: RAS-effector PPI HTRF disruption assay, Raf1-GppNHp-KRAS G12V; format: biochemical
T2 construct: 50 nM Avi-KRAS G12V (1-169) GppNHp
T2 sequence (P01116 1-169 isoform P01116-2 G12V): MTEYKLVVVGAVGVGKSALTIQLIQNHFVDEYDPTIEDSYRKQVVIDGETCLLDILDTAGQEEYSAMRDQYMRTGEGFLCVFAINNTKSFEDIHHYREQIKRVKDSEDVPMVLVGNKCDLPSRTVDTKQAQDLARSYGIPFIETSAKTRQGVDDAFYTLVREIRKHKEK
Procedure: as §1, §2, §3, §4, §5

[3] = target: T3, Avi-KRAS G12D (1-169) GppNHp/RAF1 RBD-3xFLAG (52-151) (Homo sapiens, UniProt P01116, G12D); assay: RAS-effector PPI HTRF disruption assay, Raf1-GppNHp-KRAS G12D; format: biochemical
T3 construct: 100 nM Avi-KRAS G12D (1-169) GppNHp
T3 sequence (P01116 1-169 isoform P01116-2 G12D): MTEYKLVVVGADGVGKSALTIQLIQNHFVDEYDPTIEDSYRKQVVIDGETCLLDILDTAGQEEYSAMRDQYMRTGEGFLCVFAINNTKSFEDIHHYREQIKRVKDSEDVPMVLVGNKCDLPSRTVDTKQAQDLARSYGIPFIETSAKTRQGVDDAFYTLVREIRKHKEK
Procedure: as §1, §2, §3, §4, §5

[4] = target: T4, Avi-KRAS G12D/Q25A (1-169) GppNHp/3xFLAG-PI3KCA (157-299) (Homo sapiens, UniProt P01116, G12D/Q25A); assay: RAS-effector PPI HTRF disruption assay, PI3KCA-GppNHp-KRAS G12D/Q25A; format: biochemical
T4 construct: 375 nM Avi-KRAS G12D/Q25A (1-169) GppNHp
T4 sequence (P01116 1-169 isoform P01116-2 G12D/Q25A): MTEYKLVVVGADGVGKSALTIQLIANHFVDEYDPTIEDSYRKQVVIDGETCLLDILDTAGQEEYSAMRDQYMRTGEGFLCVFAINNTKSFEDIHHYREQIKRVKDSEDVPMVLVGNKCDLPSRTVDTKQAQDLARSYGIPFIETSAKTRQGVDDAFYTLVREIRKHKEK
Procedure: as §1, §2, §3, §4, §5

[5] = system: pERK in GP2d cells (KRAS G12D); assay: Cell-based pERK HTRF assay in GP2d cell; conditions: 60 min incubation
Procedure: A pERK assay (Perkin Elmer) was used to determine the effectiveness of compounds in disrupting KRAS G12D protein/effector signaling in cells.
On Day 1, cells (GP2d) were seeded into 96-well plates at 3×10^4 cells/well in 80 μL complete growth media (DMEM, 10% FBS).
On Day 2, cells were treated with compounds at 0.25% DMSO. The source plate was created with compounds diluted in media at 5-fold the final assay concentration. The compounds were run in a 9-point concentration curve starting at 1 μM, with a half-log dilution between concentrations. 20 μL was transferred onto the cell plates (final volume in wells was 100 μL). Plates were harvested after 60 min incubation by aspirating media and adding kit-supplied 1× supplemented lysis buffer to all wells (50 μL per well). Plates were then placed on a plate shaker and incubated at 850 rpm for an additional 30 min.
Antibody mixture solution is prepared by diluting aliquoted d2 and Eu Cryptate antibodies 1:20 in kit supplied detection buffer, mix the diluted antibodies solutions (1:1 v:v). 4 μL of this solution is then added to a 384-well detection plate (Perkin Elmer; 6008230).
Samples were homogenized by pipetting up and down and then transferred (16 μL of cell lysates) from the 96-well cell culture plate to two wells of the HTRF 384-well detection plate containing the antibody solution. Plates were centrifuged (524 g for 1 min) and allowed to incubate between 4 and 24 h at room temperature. Maximum signal is reached after 4 h incubation time and remains stable over a period of 24 hours. Therefore, readings can be made between 4 and 24 h of incubation. Plates were centrifuged again (524 g for Imin), then analyzed on the EnVision plate reader using the following settings: Excitation 320 nm, Bandwidth 75 nm; Emission 615 nm, Bandwidth 85 nm; Gain 100%; Flashes 100; Lag 60 μs.

T1 sequence (P01116 1-169 isoform P01116-2): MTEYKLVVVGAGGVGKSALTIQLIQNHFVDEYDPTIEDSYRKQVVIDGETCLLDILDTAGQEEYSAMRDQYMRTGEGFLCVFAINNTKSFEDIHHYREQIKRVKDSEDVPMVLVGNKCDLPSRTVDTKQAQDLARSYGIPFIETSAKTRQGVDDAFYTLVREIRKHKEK

IC50 [1] [µM]	IC50 [2] [µM]	IC50 [3] [µM]	IC50 [4] [µM]	IC50 ([5]; read-out: pERK-Gp2D-1 hr) [µM]	IC50 ([5]; GP2d, 1 h) [µM]	SMILES
1 to 10	1 to 10	0.1 to 1	0.1 to 1	–	–	Nc1nc2c(-c3c(C(F)(F)F)cc4c(O[C@@H]5CCNC5)nc(OC[C@@]56CCCN5C[C@H](F)C6)nc4c3F)ccc(F)c2s1 (atropisomer, axis not shown) [Compound 4]
> 10	> 10	> 10	> 10	–	–	Nc1nc2c(-c3c(C(F)(F)F)cc4c(O[C@@H]5CCNC5)nc(OC[C@@]56CCCN5C[C@H](F)C6)nc4c3F)ccc(F)c2s1 (atropisomer, axis not shown) [Compound 5]
1 to 10	> 10	1 to 10	1 to 10	–	–	Nc1nc2c(-c3c(C(F)(F)F)cc4c(O[C@H]5C[C@H]6CC[C@@H](C5)N6)nc(OCC56CCCN5CCC6)nc4c3F)ccc(F)c2s1 (atropisomer, axis not shown) [Compound 6]
1 to 10	> 10	1 to 10	–	> 1	–	N#Cc1c(N)sc2c(F)ccc(-c3c(C(F)(F)F)cc4c(O[C@H]5CCC6(CNC6)C5)nc(OC[C@@]56CCCN5C[C@H](F)C6)nc4c3F)c12 (atropisomer, axis not shown) [Compound 78]
≤ 0.1	≤ 0.1	≤ 0.1	–	≤ 0.1	–	N#Cc1c(N)sc2c(F)ccc(-c3c(C(F)(F)F)cc4c(O[C@H]5CCC6(CNC6)C5)nc(OC[C@@]56CCCN5C[C@H](F)C6)nc4c3F)c12 (atropisomer, axis not shown) [Compound 79]
0.1 to 1	0.1 to 1	≤ 0.1	–	≤ 0.1	–	COC[C@H]1C[C@@H](Oc2nc(OC[C@@]34CCCN3C[C@H](F)C4)nc3c(F)c(-c4ccc(F)c5sc(N)c(C#N)c45)c(C(F)(F)F)cc23)CN1 (atropisomer, axis not shown) [Compound 80]
> 10	> 10	> 10	–	> 1	–	COC[C@H]1C[C@@H](Oc2nc(OC[C@@]34CCCN3C[C@H](F)C4)nc3c(F)c(-c4ccc(F)c5sc(N)c(C#N)c45)c(C(F)(F)F)cc23)CN1 (atropisomer, axis not shown) [Compound 81]
0.1 to 1	0.1 to 1	≤ 0.1	–	–	≤ 0.1	COC[C@@H]1C[C@@H](Oc2nc(OC[C@@]34CCCN3C[C@H](F)C4)nc3c(F)c(-c4ccc(F)c5sc(N)c(C#N)c45)c(C(F)(F)F)cc23)CN1 (atropisomer, axis not shown) [Compound 84]
≤ 0.1	0.1 to 1	≤ 0.1	–	–	0.1 to 1	N#Cc1c(N)sc2c(F)ccc(-c3c(C(F)(F)F)cc4c(O[C@@H]5CCC6(CNC6)C5)nc(OC[C@@]56CCCN5C[C@H](F)C6)nc4c3F)c12 (atropisomer, axis not shown) [Compound 85]
–	–	1 to 10	–	–	–	C[C@H]1CNCC1Oc1nc(OC[C@@]23CCCN2C[C@H](F)C3)nc2c(F)c(-c3ccc(F)c4sc(N)nc34)c(C(F)(F)F)cc12 (some centres unmarked) [Compound 1]
–	–	> 10	–	–	–	CN1CCC[C@H]1COc1nc(OC2CNC2)c2cc(Cl)c(-c3ccc(F)c4sc(N)nc34)c(F)c2n1 [Compound 3]
–	–	–	–	–	≤ 0.1	Nc1nc2c(-c3c(C(F)(F)F)cc4c(O[C@@H]5CCNC5)nc(OCC56CCCN5C[C@H](F)C6)nc4c3F)ccc(F)c2s1 (some centres unmarked) [Compound 4]
≤ 0.1	0.1 to 1	≤ 0.1	–	–	0.1 to 1	N#Cc1c(N)sc2c(F)ccc(-c3c(C(F)(F)F)cc4c(OC5CCC6(CC5)CNC6)nc(OC[C@@]56CCCN5C[C@H](F)C6)nc4c3F)c12 [Compound 40]
0.1 to 1	0.1 to 1	0.1 to 1	–	–	0.1 to 1	N#Cc1c(N)sc2c(F)ccc(-c3c(C(F)(F)F)cc4c(OC5CC6(CNC6)C5)nc(OC[C@@]56CCCN5C[C@H](F)C6)nc4c3F)c12 [Compound 43]
> 10	> 10	> 10	–	–	> 1	Nc1nc2c(-c3ccc4c(O[C@H]5CNC[C@H]5F)nc(OC[C@@]56CCCN5C[C@H](F)C6)nc4c3F)ccc(F)c2s1 [Compound 82]
> 10	> 10	> 10	–	–	> 1	C[C@H]1NCC[C@H]1Oc1nc(OC[C@@]23CCCN2C[C@H](F)C3)nc2c(F)c(-c3ccc(F)c4sc(N)nc34)ccc12 [Compound 83]
0.1 to 1	1 to 10	0.1 to 1	–	–	≤ 0.1	COC[C@H]1NCC[C@H]1Oc1nc(OC[C@@]23CCCN2C[C@H](F)C3)nc2c(F)c(-c3ccc(F)c4sc(N)c(C#N)c34)c(C(F)(F)F)cc12 [Compound 90]
> 10	> 10	> 10	–	–	0.1 to 1	COC[C@H]1NCC[C@H]1Oc1nc(OC[C@@]23CCCN2C[C@H](F)C3)nc2c(F)c(-c3ccc(F)c4sc(N)c(C#N)c34)ccc12 [Compound 91]
1 to 10	> 10	1 to 10	–	–	0.1 to 1	N#Cc1c(-c2ccc(F)c3sc(N)c(C#N)c23)c(Cl)cc2c(O[C@H]3CNC[C@H]3F)nc(OC[C@@]34CCCN3C[C@H](F)C4)nc12 [Compound 92]
1 to 10	1 to 10	1 to 10	–	–	≤ 0.1	N#Cc1c(N)sc2c(F)ccc(-c3cc4nc(OC[C@@]56CCCN5C[C@H](F)C6)nc(O[C@@H]5CCNC5)c4nc3C(F)(F)F)c12 [Compound 93, 2-amino-7-fluoro-4-(2-(((2R,7aS)-2-fluorotetrahydro-1H-pyrrolizin-7a(5H)-yl)methoxy)-4-(((R)-pyrrolidin-3-yl)oxy)-6-(trifluoromethyl)pyrido[3,2-d]pyrimidin-7-yl)benzo[b]thiophene-3-carbonitrile]
1 to 10	1 to 10	1 to 10	–	–	≤ 0.1	C[C@@H]1C[C@@H](Oc2nc(OC[C@@]34CCCN3C[C@H](F)C4)nc3cc(-c4ccc(F)c5sc(N)c(C#N)c45)c(C(F)(F)F)nc23)CN1 [Compound 94]
> 10	> 10	> 10	–	0.1 to 1	–	C[C@@H]1C[C@@H](Oc2nc(OC[C@@]34CCCN3C[C@H](F)C4)nc3cc(-c4ccc(F)c5sc(N)c(C#N)c45)c(C(F)(F)F)nc23)CN1 [Compound 95]
0.1 to 1	1 to 10	0.1 to 1	–	–	≤ 0.1	C[C@H]1NCC[C@H]1Oc1nc(OC[C@@]23CCCN2C[C@H](F)C3)nc2cc(-c3ccc(F)c4sc(N)c(C#N)c34)c(C(F)(F)F)nc12 [Compound 96]

From US20250084079A1, “COMPOSITIONS AND METHODS FOR INHIBITION OF RAS” (TheRas, Inc., priority 2022, published 2025)
